Laboratory results: patent publication US7868204B2, “Inhibitors of histone deacetylase” (MethylGene Inc., priority 2001, dated 2011)

Assays:
[1] = molecular target: T1, cloned recombinant human HDAC-1 (Homo sapiens, UniProt Q13547); test: Human HDAC-1 enzyme inhibition, Assay 1 ([3H]-acetylated histone substrate, scintillation counting); format: biochemical; conditions: Table 5F; read-out: Human HDAC-1 IC50
T1 construct: made in house; host or cells: Baculovirus insect cell expression system
Description: Assay 1. HDAC inhibitors were screened against a cloned recombinant human HDAC-1 enzyme expressed and purified from a Baculovirus insect cell expression system. […] The mixture was extracted with ethyl acetate and the released [^3H]-acetic acid was quantified by scintillation counting. For inhibition studies, the enzyme was preincubated with compounds at 4° C. for 30 minutes prior to initiation of the enzymatic assay. IC50 values for HDAC enzyme inhibitors were determined by performing dose response curves with individual compounds and determining the concentration of inhibitor producing fifty percent of the maximal inhibition.

[2] = system: HCT116 cells; test: MTT assay; format: cell-based; conditions: Homo sapiens, HCT-116, 72 h, Table 5F; HCT116 cells, 72 hours
Description: HCT116 cells (2000/well) were plated into 96-well tissue culture plates one day before compound treatment. Compounds at various concentrations were added to the cells. The cells were incubated for 72 hours at 37° C. in 5% CO2 incubator. MTT (3-[4,5-dimethylthiazol-2-yl]-2,5 diphenyl tetrazolium bromide, Sigma) was added at a final concentration of 0.5 mg/ml and incubated with the cells for 4 hours before one volume of solubilization buffer (50% N,N-dimethylformamide, 20% SDS, pH 4.7) was added onto the cultured cells. […] OD values were converted to cell numbers according to a standard growth curve of the relevant cell line.

T1 sequence (Q13547 whole entry): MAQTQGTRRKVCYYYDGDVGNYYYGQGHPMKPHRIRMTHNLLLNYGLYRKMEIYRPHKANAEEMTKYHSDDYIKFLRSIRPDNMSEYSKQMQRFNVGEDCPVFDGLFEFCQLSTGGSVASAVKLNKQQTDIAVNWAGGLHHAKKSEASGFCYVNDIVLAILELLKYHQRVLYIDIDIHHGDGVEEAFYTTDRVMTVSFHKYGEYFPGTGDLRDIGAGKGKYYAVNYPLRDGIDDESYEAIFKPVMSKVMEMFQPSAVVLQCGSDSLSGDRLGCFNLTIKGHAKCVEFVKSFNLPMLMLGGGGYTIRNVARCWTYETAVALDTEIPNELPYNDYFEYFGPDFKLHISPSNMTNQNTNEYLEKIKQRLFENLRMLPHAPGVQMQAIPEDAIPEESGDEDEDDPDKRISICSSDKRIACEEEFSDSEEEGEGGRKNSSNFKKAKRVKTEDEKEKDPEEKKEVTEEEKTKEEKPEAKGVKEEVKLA

Row | Compound | IC50 [1] [µM] | IC50 [2] [µM]
1 | Nc1ccccc1NC(=O)c1ccc(-c2noc(-c3ccccc3)n2)cc1 [Cpd 352, N-(2-Amino-phenyl)-4-(5-phenyl-[1,2,4]oxadiazol-3-yl)-benzamide] | 16 | 9
2 | Nc1ccccc1NC(=O)c1ccc(-c2noc(CN3CCCCC3)n2)cc1 [Cpd 354, N-(2-Amino-phenyl)-4-(5-piperidin-1-ylmethyl-[1,2,4]oxadiazol-3-yl)-benzamide] | 15 | 5
3 | Nc1ccccc1NC(=O)c1ccc(-c2noc(CN3CCOCC3)n2)cc1 [Cpd 355, N-(2-Amino-phenyl)-4-(5-morpholin-4-ylmethyl-[1,2,4]oxadiazol-3-yl)-benzamide] | 25 | 10
4 | CCCc1nc(Cc2ccc(C(=O)Nc3ccccc3N)cc2)no1 [Cpd 356] | 5 | 2
5 | Nc1ccccc1NC(=O)c1ccc(CN2C(=O)COc3cccnc32)cc1 [Cpd 364, N-(2-Amino-phenyl)-4-(3-oxo-2,3-dihydro-pyrido[3,2-b][1,4]oxazin-4-ylmethyl)-benzamide] | 4 | 0.6
6 | Nc1ccccc1NC(=O)c1ccc(Oc2ccccc2)cc1 [Cpd 366, N-(2-Amino-phenyl)-4-phenoxy-benzamide] | 14 | 10
7 | Nc1ccccc1NC(=O)c1ccc(C(=O)Nc2ccccc2N)nc1 [Cpd 380, Pyridine-2,5-dicarboxylic acid bis-[(2-amino-phenyl)-amide]] | 6 | 8
8 | Nc1ccccc1NC(=O)c1ccc(CNc2nccc3ccccc23)cc1 [Cpd 399, N-(2-Amino-phenyl)-4-(isoquinolin-1-ylaminomethyl)-benzamide] | 14 | 9
9 | Nc1ccccc1NC(=O)c1ccc(CNc2ccc(OCc3cccnc3)cc2)cc1 [Cpd 408, N-(2-Amino-phenyl)-4-{[4-(pyridin-3-ylmethoxy)-phenylamino]-methyl}-benzamide] | 4 | 2
10 | Nc1ccccc1NC(=O)c1ccc(NC(=O)C(F)(F)F)cc1 [Cpd 431, N-(2-Aminophenyl)-4-(2,2,2-trifluoro-acetylamino)-benzamide] | 5 | 5
11 | COc1cc(NCc2ccc(C(=O)Nc3ccccc3N)cn2)cc(OC)c1OC [Cpd 445, N-(2-Amino-phenyl)-6-[(3,4,5-trimethoxy-phenylamino)-methyl]-nicotinamide] | 16 | 6
12 | Nc1ccccc1NC(=O)c1ccc(NCCn2cnc3ccccc3c2=O)nc1 [Cpd 446, N-(2-Amino-phenyl)-6-[2-(4-oxo-4H-quinazolin-3-yl)-ethylamino]-nicotinamide] | 21 | 7

Now those with a lower IC50 [1], led by results:

Row | IC50 [1] [µM] | IC50 [2] [µM] | Compound
13 | 3 | 10 | Cc1nc(-c2ccc(C(=O)Nc3ccccc3N)cc2)no1 [Cpd 353, N-(2-Amino-phenyl)-4-(5-methyl-[1,2,4]oxadiazol-3-yl)-benzamide]
14 | 3 | 11 | COc1cc(NCc2ccc(C(=O)Nc3ccccc3N)cc2)c(C(=O)O)cc1OC [Cpd 406, 2-[4-(2-Amino-phenylcarbamoyl)-benzylamino]-4,5-dimethoxy-benzoic acid]
15 | 3 | 2 | Cc1cc(C)cc(NCc2ccc(C(=O)Nc3ccccc3N)cc2)c1 [Cpd 407, N-(2-Amino-phenyl)-4-[(3,5-dimethyl-phenylamino)-methyl]-benzamide]
16 | 3 | 1 | Cc1ccc(NCc2ccc(C(=O)Nc3ccccc3N)cc2)c(C)c1 [Cpd 409, N-(2-Amino-phenyl)-4-[(2,4-dimethyl-phenylamino)-methyl]-benzamide]
17 | 3 | 2 | Nc1ccccc1NC(=O)c1ccc(CNc2ccc(SC(F)(F)F)cc2)cc1 [Cpd 450, N-(2-Amino-phenyl)-4-[(4-trifluoromethylsulfanyl-phenylamino)-methyl]-benzamide]
18 | 1 | 6 | Nc1ccccc1NC(=O)c1ccc(CNc2ccc3[nH]c(=O)[nH]c3c2)cc1 [Cpd 449, N-(2-Amino-phenyl)-4-[(2-oxo-2,3-dihydro-1H-benzoimidazol-5-ylamino)-methyl]-benzamide]
